Laboratory results reported in patent US20240132431A1, “METHOD FOR ALKYLATING ACIDIC FUNCTIONAL GROUP” (Chugai Seiyaku Kabushiki Kaisha, priority 2021, published 2024).

Molecular target: T1, Bcl-2 protein (Recombinant Human Bcl-2 Protein) (Homo sapiens, UniProt P10415)
T1 construct: purchased Novus NBP2-34889
Experiment: Binding evaluation of mixture library compounds to Bcl-2 using AS-MS (affinity selection mass spectrometry)
Method in brief: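 Pooled library of ~1200 compounds ([…] each, final) incubated with recombinant human Bcl-2 (20 μM final) in Tris-HCl pH 7.4, NaCl, Tween-20, DTT buffer, dark, 23° C., 1 h. Bound fraction recovered by SEC spin column, organic extraction, reversed-phase LC/MS. ASMS Ratio (%) = (A−C)/B×100 versus protein-free standard and SEC blank.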

T1 sequence (P10415 whole entry): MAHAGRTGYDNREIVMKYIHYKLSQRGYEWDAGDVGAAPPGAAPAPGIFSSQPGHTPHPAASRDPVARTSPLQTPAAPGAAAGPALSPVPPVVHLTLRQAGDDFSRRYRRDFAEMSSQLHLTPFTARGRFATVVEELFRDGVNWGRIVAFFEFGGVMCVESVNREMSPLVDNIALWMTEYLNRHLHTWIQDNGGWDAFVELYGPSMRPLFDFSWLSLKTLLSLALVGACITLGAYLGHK

| Compound | ASMS ratio (%) (n = 1) | ASMS ratio (%) (n = 2) |
| --- | --- | --- |
| CCOc1cncc(-c2ccccc2CCC(=O)N2CCN(c3ccc(C(=O)NS(=O)(=O)C(C)(C)C)nn3)CC2)c1 [B2L012-01, N-tert-Butylsulfonyl-6-[4-[3-[2-(5-ethoxypyridin-3-yl)phenyl]propanoyl]piperazin-1-yl]pyridazine-3-carboxamide] | 4.3 | 7.3 |
| CCOc1cccc(-c2ccc(C(=O)N3CCN(c4ccc(C(=O)NS(=O)(=O)C(C)(C)C)nn4)CC3)c3ccccc23)c1 [B2L013-01, N-tert-Butylsulfonyl-6-[4-[4-(3-ethoxyphenyl)naphthalene-1-carbonyl]piperazin-1-yl]pyridazine-3-carboxamide] | 0.0 | 0.0 |
| CCOc1cncc(-c2ccc(C(=O)N3CCN(c4ccc(C(=O)NS(=O)(=O)C(C)(C)C)nn4)CC3)c3ccccc23)c1 [B2L014-01, N-tert-Butylsulfonyl-6-[4-[4-(5-ethoxypyridin-3-yl)naphthalene-1-carbonyl]piperazin-1-yl]pyridazine-3-carboxamide] | 0.3 | 0.5 |
| CCOc1cccc(-c2cc(C(=O)N3CCN(c4ccc(C(=O)NS(=O)(=O)C(C)(C)C)nn4)CC3)cc(C(C)(C)C)c2)c1 [B2L015-01, 6-[4-[3-tert-Butyl-5-(3-ethoxyphenyl)benzoyl]piperazin-1-yl]-N-tert-butylsulfonylpyridazine-3-carboxamide] | 0.0 | 0.0 |
| CCOc1cncc(-c2cc(C(=O)N3CCN(c4ccc(C(=O)NS(=O)(=O)C(C)(C)C)nn4)CC3)cc(C(C)(C)C)c2)c1 [B2L016-01, 6-[4-[3-tert-Butyl-5-(5-ethoxypyridin-3-yl)benzoyl]piperazin-1-yl]-N-tert-butylsulfonylpyridazine-3-carboxamide] | 0.0 | −5.4 |
| CCOc1cccc(-c2cc(C(=O)N3CCN(c4ccc(C(=O)NS(=O)(=O)C(C)(C)C)nn4)CC3)cc(C(F)(F)F)c2)c1 [B2L017-01, N-tert-Butylsulfonyl-6-[4-[3-(3-ethoxyphenyl)-5-(trifluoromethyl)benzoyl]piperazin-1-yl]pyridazine-3-carboxamide] | 0.0 | 0.0 |
| CCOc1cncc(-c2cc(C(=O)N3CCN(c4ccc(C(=O)NS(=O)(=O)C(C)(C)C)nn4)CC3)cc(C(F)(F)F)c2)c1 [B2L018-01, N-tert-Butylsulfonyl-6-[4-[3-(5-ethoxypyridin-3-yl)-5-(trifluoromethyl)benzoyl]piperazin-1-yl]pyridazine-3-carboxamide] | −1.9 | −2.5 |
| CCOc1cncc(C#Cc2cc(C(=O)N3CCN(c4ccc(C(=O)NS(=O)(=O)C(C)(C)C)nn4)CC3)cc(C(F)(F)F)c2)c1 [B2L020-01, N-tert-Butylsulfonyl-6-[4-[3-[2-(5-ethoxypyridin-3-yl)ethynyl]-5-(trifluoromethyl)benzoyl]piperazin-1-yl]pyridazine-3-carboxamide] | 0.0 | 0.0 |
| CCOc1cccc(-c2cnn(-c3cc(C(=O)N4CCN(c5ccc(C(=O)NS(=O)(=O)C(C)(C)C)nn5)CC4)cc(C(F)(F)F)c3)c2)c1 [B2L021-01, N-tert-Butylsulfonyl-6-[4-[3-[4-(3-ethoxyphenyl)pyrazol-1-yl]-5-(trifluoromethyl)benzoyl]piperazin-1-yl]pyridazine-3-carboxamide] | 0.0 | −14.9 |
| CCOc1cncc(-c2cnn(-c3cc(C(=O)N4CCN(c5ccc(C(=O)NS(=O)(=O)C(C)(C)C)nn5)CC4)cc(C(F)(F)F)c3)c2)c1 [B2L022-01, N-tert-Butylsulfonyl-6-[4-[3-[4-(5-ethoxypyridin-3-yl)pyrazol-1-yl]-5-(trifluoromethyl)benzoyl]piperazin-1-yl]pyridazine-3-carboxamide] | 0.0 | 0.0 |
| CCOc1cccc(-c2csc(C(=O)N3CCN(c4ccc(C(=O)NS(=O)(=O)C(C)(C)C)cc4)CC3)c2)c1 [B2L023-01, N-tert-Butylsulfonyl-4-[4-[4-(3-ethoxyphenyl)thiophene-2-carbonyl]piperazin-1-yl]benzamide] | 0.0 | 0.0 |
| CCOc1cncc(-c2csc(C(=O)N3CCN(c4ccc(C(=O)NS(=O)(=O)C(C)(C)C)cc4)CC3)c2)c1 [B2L024-01, N-tert-Butylsulfonyl-4-[4-[4-(5-ethoxypyridin-3-yl)thiophene-2-carbonyl]piperazin-1-yl]benzamide] | 0.0 | 0.0 |
| CCOc1cccc(-c2ccc(C(=O)N3CCN(c4ccc(C(=O)NS(=O)(=O)C(C)(C)C)cc4)CC3)cc2C)c1 [B2L025-01, N-tert-Butylsulfonyl-4-[4-[4-(3-ethoxyphenyl)-3-methylbenzoyl]piperazin-1-yl]benzamide] | 0.0 | 0.0 |
| CCOc1cncc(-c2ccc(C(=O)N3CCN(c4ccc(C(=O)NS(=O)(=O)C(C)(C)C)cc4)CC3)cc2C)c1 [B2L026-01, N-tert-Butylsulfonyl-4-[4-[4-(5-ethoxypyridin-3-yl)-3-methylbenzoyl]piperazin-1-yl]benzamide] | 0.0 | 0.0 |
| CCOc1cccc(-c2ccc(C(=O)N3CCN(c4ccc(C(=O)NS(=O)(=O)C(C)(C)C)cc4)CC3)cc2F)c1 [B2L027-01, N-tert-Butylsulfonyl-4-[4-[4-(3-ethoxyphenyl)-3-fluorobenzoyl]piperazin-1-yl]benzamide] | 0.0 | 0.0 |
| CCOc1cncc(-c2ccc(C(=O)N3CCN(c4ccc(C(=O)NS(=O)(=O)C(C)(C)C)cc4)CC3)cc2F)c1 [B2L028-01, N-tert-Butylsulfonyl-4-[4-[4-(5-ethoxypyridin-3-yl)-3-fluorobenzoyl]piperazin-1-yl]benzamide] | 0.0 | 0.0 |
| CCOc1cccc(C#Cc2ccccc2C(=O)N2CCN(c3ccc(C(=O)NS(=O)(=O)C(C)(C)C)cc3)CC2)c1 [B2L029-01, N-tert-Butylsulfonyl-4-[4-[2-[2-(3-ethoxyphenyl)ethynyl]benzoyl]piperazin-1-yl]benzamide] | 0.0 |  |
| CCOc1cccc(C#Cc2cncc(C(=O)N3CCN(c4ccc(C(=O)NS(=O)(=O)C(C)(C)C)cc4)CC3)c2)c1 [B2L031-01, N-tert-Butylsulfonyl-4-[4-[5-[2-(3-ethoxyphenyl)ethynyl]pyridine-3-carbonyl]piperazin-1-yl]benzamide] | 0.0 | 0.0 |
| CCOc1cncc(C#Cc2cncc(C(=O)N3CCN(c4ccc(C(=O)NS(=O)(=O)C(C)(C)C)cc4)CC3)c2)c1 [B2L032-01, N-tert-Butylsulfonyl-4-[4-[5-[2-(5-ethoxypyridin-3-yl)ethynyl]pyridine-3-carbonyl]piperazin-1-yl]benzamide] | 0.0 | −1.0 |
| CCOc1cccc(-c2ccccc2CCC(=O)N2CCN(c3ccc(C(=O)NS(=O)(=O)C(C)(C)C)cc3)CC2)c1 [B2L033-01, N-tert-Butylsulfonyl-4-[4-[3-[2-(3-ethoxyphenyl)phenyl]propanoyl]piperazin-1-yl]benzamide] | 0.0 | 0.0 |
| CCOc1cncc(-c2ccccc2CCC(=O)N2CCN(c3ccc(C(=O)NS(=O)(=O)C(C)(C)C)cc3)CC2)c1 [B2L034-01, N-tert-Butylsulfonyl-4-[4-[3-[2-(5-ethoxypyridin-3-yl)phenyl]propanoyl]piperazin-1-yl]benzamide] | 1.6 | 3.5 |
| CCOc1cccc(-c2ccc(C(=O)N3CCN(c4ccc(C(=O)NS(=O)(=O)C(C)(C)C)cc4)CC3)c3ccccc23)c1 [B2L035-01, N-tert-Butylsulfonyl-4-[4-[4-(3-ethoxyphenyl)naphthalene-1-carbonyl]piperazin-1-yl]benzamide] | 0.0 |  |
| CCOc1cncc(-c2ccc(C(=O)N3CCN(c4ccc(C(=O)NS(=O)(=O)C(C)(C)C)cc4)CC3)c3ccccc23)c1 [B2L036-01, N-tert-Butylsulfonyl-4-[4-[4-(5-ethoxypyridin-3-yl)naphthalene-1-carbonyl]piperazin-1-yl]benzamide] | 0.0 | 0.0 |
| CCOc1cccc(-c2cc(C(=O)N3CCN(c4ccc(C(=O)NS(=O)(=O)C(C)(C)C)cc4)CC3)cc(C(C)(C)C)c2)c1 [B2L037-01, 4-[4-[3-tert-Butyl-5-(3-ethoxyphenyl)benzoyl]piperazin-1-yl]-N-tert-butylsulfonylbenzamide] | 0.0 | 0.0 |
| CCOc1cncc(-c2cc(C(=O)N3CCN(c4ccc(C(=O)NS(=O)(=O)C(C)(C)C)cc4)CC3)cc(C(C)(C)C)c2)c1 [B2L038-01, 4-[4-[3-tert-Butyl-5-(5-ethoxypyridin-3-yl)benzoyl]piperazin-1-yl]-N-tert-butylsulfonylbenzamide] | 0.0 | 0.0 |
| CCOc1cccc(-c2cc(C(=O)N3CCN(c4ccc(C(=O)NS(=O)(=O)C(C)(C)C)cc4)CC3)cc(C(F)(F)F)c2)c1 [B2L039-01, N-tert-Butylsulfonyl-4-[4-[3-(3-ethoxyphenyl)-5-(trifluoromethyl)benzoyl]piperazin-1-yl]benzamide] | 0.0 | 0.0 |
| CCOc1cncc(-c2cc(C(=O)N3CCN(c4ccc(C(=O)NS(=O)(=O)C(C)(C)C)cc4)CC3)cc(C(F)(F)F)c2)c1 [B2L040-01, N-tert-Butylsulfonyl-4-[4-[3-(5-ethoxypyridin-3-yl)-5-(trifluoromethyl)benzoyl]piperazin-1-yl]benzamide] | −0.2 | 1.0 |
| CCOc1cccc(C#Cc2cc(C(=O)N3CCN(c4ccc(C(=O)NS(=O)(=O)C(C)(C)C)cc4)CC3)cc(C(F)(F)F)c2)c1 [B2L041-01, N-tert-Butylsulfonyl-4-[4-[3-[2-(3-ethoxyphenyl)ethynyl]-5-(trifluoromethyl)benzoyl]piperazin-1-yl]benzamide] | 0.0 |  |
